# Legend:
# mice [1] = test: mouse tail suspension test (TST); type: in vivo; settings: mice injected with control vector or no virus
# Text: (§1) Two mouse groups (n=10) received bilateral nucleus accumbens injections of AAV-p11-siRNA or control vector. The mouse groups are referenced herein as the “knockdown group” or “control” respectively. Behavioral testing began 6 weeks later, when expression from AAV vectors usually peaks. Behavioral testing included mouse tail suspension test (TST), open filed test, and forced swim test (FST).
# (§2) Knockdown and control groups of mice were transfected with AAV-p11-siRNA or control AAV vector, as described in Example 1. An additional control group was not transfected with any virus. The mice were subsequently treated with the antidepressant imipramine.
# (§3) The AAV plasmid shown in FIGS. 2 and 3 was used to generate a virus vector, which expresses the p11 gene product and which has the same AAV2 backbone described in Example 1. The resulting virus vector (“AAV-p11,” which is SEQ ID NO: 3) was injected into the nucleus accumbens of normal adult mice.
# (§4) Three groups of p11 knockdown mice (as in Example 1) were transfected with no virus, control virus vector, and the AAV-p11 virus vector of Example 3, respectively. Each knockdown transfectant group was compared to a wild-type counterpart group, which was also transfected with no virus, control virus vector, or AAV-p11. All virus transfections involved bilateral injection to the nucleus accumbens.
# mice [2] = test: forced swim test (FST); type: in vivo, mouse; settings: mice injected with control vector or no virus
# Text: as §1, §2, §3, §4
compound,measurement,setting,value
CN(C)CCCN1c2ccccc2CCc2ccccc21 [imipramine],immobility on the TST after imipramine,mice [1],decreased immobility
same,immobility on the FST after imipramine,mice [2],decreased immobility

# Reference: US8642341B2, “Materials and methods for gene mediated therapy of psychiatric disorders” (Cornell University, priority 2007, dated 2014)
